The target of one test is KRas WT (Homo sapiens, UniProt P01116). Kind of test: KRas binding assay (TR-FRET displacement), KRas WT. The conditions noted are these: TR-FRET displacement. For orientation: TR-FRET usually uses a lanthanide donor and a delayed reading to cut background.
Another test addresses KRas G12C (Homo sapiens, UniProt P01116, G12C). The format is binding. The conditions noted are these: TR-FRET displacement, read-out: Binding to KRas (IC50 nM) G12C.
The target in a further test is KRas G12S (Homo sapiens, UniProt P01116, G12S). It is filed as binding. The following applies: TR-FRET displacement, read-out: Binding to KRas (IC50 nM) G12S.
KRas G12S, sequence (P01116 1-169 isoform P01116-2 G12S): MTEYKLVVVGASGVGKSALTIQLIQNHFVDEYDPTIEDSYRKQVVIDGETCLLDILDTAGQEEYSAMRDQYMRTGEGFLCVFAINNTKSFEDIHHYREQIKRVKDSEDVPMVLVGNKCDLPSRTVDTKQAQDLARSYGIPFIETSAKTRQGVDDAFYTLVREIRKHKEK
The subject of another test is ASPC1 cells. Kind of test: Inhibition of KRas-mediated phosphorylation of ERK (Cisbio HTRF pERK), ASPC1 cells. The format is cell-based. The following applies: Homo sapiens, AsPC-1 cells; for IC50: ASPC1, 3 h, 3 hr compound incubation.
The next test has as its system H727 cells. As to the kind of experiment: Inhibition of KRas-mediated phosphorylation of ERK (Cisbio HTRF pERK), H727 cells. It is filed as cell-based. The following applies: Homo sapiens; for IC50: NCI-H727, 3 h, 3 hr compound incubation.
In another test the test system is A549 cells. Kind of test: Inhibition of KRas-mediated phosphorylation of ERK (Cisbio HTRF pERK), A549 cells. The format is cell-based. The following applies: Homo sapiens; for IC50: A549, 3 h, 3 hr compound incubation.
The next test deals with H460 cells. Kind of test: Inhibition of KRas-mediated phosphorylation of ERK (Cisbio HTRF pERK), H460 cells. The following applies: Homo sapiens; for IC50: NCI-H460, 3 h, 3 hr compound incubation. It is filed as cell-based.
In another test the test system is HCT116 cells. Kind of test: Inhibition of KRas-mediated phosphorylation of ERK (Cisbio HTRF pERK), HCT116 cells. The format is cell-based. The conditions noted are these: Homo sapiens; for IC50: HCT-116, 3 h, 3 hr compound incubation.
The next test deals with H358 cells. Kind of test: Inhibition of KRas-mediated phosphorylation of ERK (Cisbio HTRF pERK), H358 cells. The format is cell-based. The following applies: Homo sapiens; for IC50: NCI-H358, 3 h, 3 hr compound incubation.
In another test the target is KRas G12D (Homo sapiens, UniProt P01116, G12D). As to the kind of experiment: biochemical. The conditions noted are these: Binding to KRas (IC50 nM) G12D, TR-FRET displacement, KRas G12D.
KRas G12D, sequence (P01116 1-169 isoform P01116-2 G12D): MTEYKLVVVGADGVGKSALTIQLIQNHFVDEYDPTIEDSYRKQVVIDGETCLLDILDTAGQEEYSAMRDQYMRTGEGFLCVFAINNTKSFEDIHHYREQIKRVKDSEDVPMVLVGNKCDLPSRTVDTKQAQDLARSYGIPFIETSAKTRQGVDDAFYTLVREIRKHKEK
The target of a further test is KRas G12V (Homo sapiens, UniProt P01116, G12V). Kind of test: biochemical. The following applies: Binding to KRas (IC50 nM) G12V, TR-FRET displacement, KRas G12V.
KRas G12V, sequence (P01116 1-169 isoform P01116-2 G12V): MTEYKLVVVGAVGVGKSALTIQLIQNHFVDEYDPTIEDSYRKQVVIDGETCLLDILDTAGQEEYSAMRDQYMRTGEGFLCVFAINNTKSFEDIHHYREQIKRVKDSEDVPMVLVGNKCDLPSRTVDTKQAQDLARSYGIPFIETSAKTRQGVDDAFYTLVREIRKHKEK
The target of another test is KRas G12R (Homo sapiens, UniProt P01116, G12R). Kind of test: biochemical. The following applies: Binding to KRas (IC50 nM) G12R, TR-FRET displacement, KRas G12R.
KRas G12R, sequence (P01116 1-169 isoform P01116-2 G12R): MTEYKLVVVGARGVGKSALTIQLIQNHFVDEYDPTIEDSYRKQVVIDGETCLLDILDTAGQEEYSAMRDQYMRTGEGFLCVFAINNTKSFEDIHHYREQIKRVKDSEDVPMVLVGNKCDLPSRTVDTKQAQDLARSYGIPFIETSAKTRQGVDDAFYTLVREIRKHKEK
The target in another test is KRas G12A (Homo sapiens, UniProt P01116, G12A). It is filed as binding. The following applies: TR-FRET displacement, read-out: Binding to KRas (IC50 nM) G12A.
KRas G12A, sequence (P01116 1-169 isoform P01116-2 G12A): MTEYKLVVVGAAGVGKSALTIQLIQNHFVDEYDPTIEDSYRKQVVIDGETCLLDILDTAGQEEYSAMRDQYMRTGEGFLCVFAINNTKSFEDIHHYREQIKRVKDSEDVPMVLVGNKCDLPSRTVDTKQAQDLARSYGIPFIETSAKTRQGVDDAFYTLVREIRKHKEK
The next test addresses KRas G13D (Homo sapiens, UniProt P01116, G13D). The format is binding. The conditions noted are these: TR-FRET displacement, read-out: Binding to KRas (IC50 nM) G13D.
Another test has as its target KRas Q61H (Homo sapiens, UniProt P01116, Q61H). As to the kind of experiment: KRas binding assay (TR-FRET displacement), KRas Q61H. The following applies: TR-FRET displacement.

The structures appear in SMILES notation. A value given as a limit tells only on which side of the number the result lay.

KRas WT, sequence (P01116 1-169 isoform P01116-2): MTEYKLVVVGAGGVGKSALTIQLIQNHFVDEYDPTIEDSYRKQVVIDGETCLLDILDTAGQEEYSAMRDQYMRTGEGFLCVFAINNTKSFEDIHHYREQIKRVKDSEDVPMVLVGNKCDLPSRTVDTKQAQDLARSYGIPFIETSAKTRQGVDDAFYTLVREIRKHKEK
KRas G13D, sequence (P01116 1-169 isoform P01116-2 G13D): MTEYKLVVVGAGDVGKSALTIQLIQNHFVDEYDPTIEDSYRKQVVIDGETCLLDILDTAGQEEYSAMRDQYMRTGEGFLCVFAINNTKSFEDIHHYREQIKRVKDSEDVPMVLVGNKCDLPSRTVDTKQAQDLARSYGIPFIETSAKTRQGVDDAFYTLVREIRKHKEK
KRas G12C, sequence (P01116 1-169 isoform P01116-2 G12C): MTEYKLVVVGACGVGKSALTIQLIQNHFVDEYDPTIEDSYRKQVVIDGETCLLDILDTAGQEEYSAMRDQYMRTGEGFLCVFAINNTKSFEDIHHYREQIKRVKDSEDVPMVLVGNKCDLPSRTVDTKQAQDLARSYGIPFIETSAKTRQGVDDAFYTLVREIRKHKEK
KRas Q61H, sequence (P01116 1-169 isoform P01116-2 Q61H): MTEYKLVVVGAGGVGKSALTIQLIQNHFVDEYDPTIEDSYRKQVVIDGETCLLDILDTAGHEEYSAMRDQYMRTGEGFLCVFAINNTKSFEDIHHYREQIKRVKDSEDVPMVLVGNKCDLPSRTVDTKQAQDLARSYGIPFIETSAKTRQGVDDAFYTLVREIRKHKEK

As usually defined, the IC50 is the point on the concentration scale where inhibition reaches its midpoint. For the compound `C[C@@H]1C[C@@H]1c1c(Cl)cc(O)cc1N1CCc2c(nc(OC[C@@]34CCCN3C[C@H](F)C4)nc2N2CCC[C@@](C)(O)C2)C1` (stereo in doubt) [Example 655, (R)-1-(7-(3-chloro-5-hydroxy-2-(cis-2-methylcyclopropyl)phenyl)-2-(((2R,7aS)-2-fluorotetrahydro-1H-pyrrolizin-7a(5H)-yl)methoxy)-5,6,7,8-tetrahydropyrido[3,4-d]pyrimidin-4-yl)-3-methylpiperidin-3-ol], the IC50 at KRas WT was found to be 5 nM; on KRas G12C it was 4 nM; at KRas G12S it was 5 nM; in the test on ASPC1 cells it was 247 nM; with H727 cells, 525 nM; in the test with A549 cells, 359 nM. In addition, the IC50 with H460 cells is 237 nM; in the test on HCT116 cells it was 926 nM; with H358 cells, 189 nM; on KRas G12D, 5 nM; on KRas G12V, 4 nM.

Usually inhibition stands for the drop in the measured response relative to a control, in per cent. A lower inhibition goes with little suppression. `CCc1c(F)ccc2cc(O)cc(N3CCc4c(nc(OC[C@@]56CCCN5C[C@H](F)C6)nc4N4CCCn5nc(C(=O)N6CC7CC6CN7)cc5C4)C3)c12` (stereo partly drawn) [Example 502, 2,5-diazabicyclo[2.2.1]heptan-2-yl(5-(7-(8-ethyl-7-fluoro-3-hydroxynaphthalen-1-yl)-2-(((2R,7aS)-2-fluorohexahydro-1H-pyrrolizin-7a-yl)methoxy)-5,6,7,8-tetrahydropyrido[3,4-d]pyrimidin-4-yl)-5,6,7,8-tetrahydro-4H-pyrazolo[1,5-a][1,4]diazepin-2-yl)methanone]: the IC50 with ASPC1 cells (Cisbio pERK HTRF) was 124 nM; in the test on H727 cells (Cisbio pERK HTRF), 1310 nM; on KRas G12D it was less than 2 nM; on KRas G12R it was 3 nM; at KRas G12V, less than 2 nM. Also, the inhibition at 0.1 µM in the test with ASPC1 cells (ASPC1, single point at 100 nM, 3 hrs compound incubation) was determined as 22%; in the test with H727 cells (NCI-H727, single point at 100 nM, 3 hrs compound incubation), 7%; with A549 cells (single point at 100 nM, 3 hrs compound incubation), 11%; in the test with H460 cells (NCI-H460, single point at 100 nM, 3 hrs compound incubation), 7%; in the test with HCT116 cells (HCT-116, single point at 100 nM, 3 hrs compound incubation), 8%; in the test on H358 cells (NCI-H358, single point at 100 nM, 3 hrs compound incubation), 5%.

Turning to `CCc1cccc2cccc(N3CCc4c(nc(OCC5(CN(C)C)CC5)nc4N4CCCC(c5nnc[nH]5)C4)C3)c12` (stereo not drawn) [Example 514, 1-(1-(((4-(3-(4H-1,2,4-triazol-3-yl)piperidin-1-yl)-7-(8-ethylnaphthalen-1-yl)-5,6,7,8-tetrahydropyrido[3,4-d]pyrimidin-2-yl)oxy)methyl)cyclopropyl)-N,N-dimethylmethanamine], the IC50 at KRas WT amounted to 252 nM; at KRas G12A, 296 nM; on KRas G12C it was 286 nM; on KRas G12S it was 318 nM; at KRas G13D, 372 nM; on KRas Q61H, 389 nM. The IC50 on KRas G12D was 3220 nM; on KRas G12V, 1570 nM.

As for `CCc1cccc2cccc(N3CCc4c(nc(OCC5(CN(C)C)CC5)nc4N4CCCOC(CCO)C4)C3)c12` (stereo not drawn) [Example 515, 2-(4-(2-((1-((dimethylamino)methyl)cyclopropyl)methoxy)-7-(8-ethylnaphthalen-1-yl)-5,6,7,8-tetrahydropyrido[3,4-d]pyrimidin-4-yl)-1,4-oxazepan-2-yl)ethan-1-ol], the half-inhibitory concentration (IC50) was determined as 622 nM at KRas WT; 656 nM at KRas G12A; 373 nM on KRas G12C; 725 nM on KRas G12S; 988 nM at KRas G13D; 877 nM at KRas Q61H. For the same compound, the concentration for half-maximal inhibition (IC50) amounted to 298 nM on KRas G12D and 346 nM on KRas G12V.

For the compound `CCc1cccc2cccc(N3CCc4c(nc(OCC5(CN(C)C)CC5)nc4N4CC(C)CC(CO)C4)C3)c12` (stereo not drawn) [Example 516, (1-(2-((1-((dimethylamino)methyl)cyclopropyl)methoxy)-7-(8-ethylnaphthalen-1-yl)-5,6,7,8-tetrahydropyrido[3,4-d]pyrimidin-4-yl)-5-methylpiperidin-3-yl)methanol], the concentration for half-maximal inhibition (IC50) at KRas WT is 2650 nM; on KRas G12A it was 1490 nM; on KRas G12C it was 1030 nM; at KRas G12S it was 1560 nM; on KRas G13D, 3180 nM; on KRas Q61H it was 2530 nM. For the same compound, the results for the half-inhibitory concentration (IC50) on KRas G12D and on KRas G12V were 1230 nM and 1150 nM, respectively.

In the case of `CCc1cccc2cccc(N3CCc4c(nc(OCC5(CN(C)C)CC5)nc4N4CCn5nnc(CO)c5C4)C3)c12` [Example 517, (5-(2-((1-((dimethylamino)methyl)cyclopropyl)methoxy)-7-(8-ethylnaphthalen-1-yl)-5,6,7,8-tetrahydropyrido[3,4-d]pyrimidin-4-yl)-4,5,6,7-tetrahydro-[1,2,3]triazolo[1,5-a]pyrazin-3-yl)methanol], the IC50 at KRas WT amounted to 9330 nM; at KRas G12A it was 7190 nM; at KRas G12C, 4470 nM; at KRas G12S, 6620 nM; on KRas G13D it was 15300 nM; at KRas Q61H it was 11500 nM. Besides, the IC50 worked out at 1260 nM on KRas G12D and 3100 nM on KRas G12V.

Turning to `CCc1c(F)ccc2cc(O)cc(N3CCc4c(nc(OCC5(CN(C)C)CC5)nc4N4CCOC(c5n[nH]c(CO)n5)C4)C3)c12` (stereo not drawn) [Example 602, 4-(2-((1-((dimethylamino)methyl)cyclopropyl)methoxy)-4-(2-(5-(hydroxymethyl)-1H-1,2,4-triazol-3-yl)morpholino)-5,8-dihydropyrido[3,4-d]pyrimidin-7(6H)-yl)-5-ethyl-6-fluoronaphthalen-2-ol], the IC50 was more than 10000 nM with ASPC1 cells (Cisbio pERK HTRF); more than 10000 nM in the test on H727 cells (Cisbio pERK HTRF); more than 10000 nM in the test on A549 cells (Cisbio pERK HTRF); 7580 nM with H460 cells (Cisbio pERK HTRF); more than 10000 nM in the test on HCT116 cells (Cisbio pERK HTRF); 907 nM in the test on H358 cells (Cisbio pERK HTRF). Further, the half-maximal inhibitory concentration (IC50) was 44 nM at KRas G12D, 3 nM at KRas G12R and 6 nM at KRas G12V.

On to `CCc1c(F)ccc2cc(O)cc(N3CCc4c(nc(OC[C@@]56CCCN5C[C@H](F)C6)nc4N4CCCN(CC(F)(F)F)CC4)C3)c12` [Example 649, 5-ethyl-6-fluoro-4-(2-(((2R,7aS)-2-fluorotetrahydro-1H-pyrrolizin-7a(5H)-yl)methoxy)-4-(4-(2,2,2-trifluoroethyl)-1,4-diazepan-1-yl)-5,8-dihydropyrido[3,4-d]pyrimidin-7(6H)-yl)naphthalen-2-ol], for which the concentration for half-maximal inhibition (IC50) is 6520 nM with ASPC1 cells; 3710 nM in the test with H727 cells; 3100 nM in the test on A549 cells; 2440 nM with H460 cells; more than 10000 nM in the test with HCT116 cells; 1100 nM with H358 cells. Further, the IC50 at KRas G12D was 124 nM; at KRas G12R, 34 nM; at KRas G12V it was 29 nM.

As for `CN(C)C(=O)c1cc2n(n1)CCCN(c1nc(OC[C@@]34CCCN3C[C@H](F)C4)nc3c1CCN(c1ccc(F)c4sc(N)c(C#N)c14)C3)C2` [Example 709, 5-(7-(2-amino-3-cyano-7-fluorobenzo[b]thiophen-4-yl)-2-(((2R,7aS)-2-fluorotetrahydro-1H-pyrrolizin-7a(5H)-yl)methoxy)-5,6,7,8-tetrahydropyrido[3,4-d]pyrimidin-4-yl)-N,N-dimethyl-5,6,7,8-tetrahydro-4H-pyrazolo[1,5-a][1,4]diazepine-2-carboxamide], the IC50 on KRas WT was determined as 95 nM; at KRas G12C, 72 nM; on KRas G12S, 83 nM; in the test with ASPC1 cells, 4290 nM; in the test on H727 cells, 4720 nM; in the test on A549 cells, 8710 nM. The values for the IC50 in the test with H358 cells, at KRas G12D and at KRas G12V were 1250 nM, 17 nM and 31 nM, respectively.

These data come from patent US20250368649A1, “TETRAHYDROPYRIDOPYRIMIDINE PAN-KRAS INHIBITORS” (Mirati Therapeutics, Inc., priority 2022, published 2025).
